System: DNA repair protein genes
Test: DNA chip mRNA expression in yeast, DNA repair protein genes (Table 3)
Format: cell-based, Saccharomyces cerevisiae S288C
Settings: incubated two hours, concentrations as in the 1st table
Procedure, shortened: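 First, S288C yeast grown in YPD at 25° C. are dosed in log phase with one toxicant (growth-inhibiting, not lethal) for 2 h. Next, total RNA is extracted and poly(A) mRNA isolated and reverse-transcribed with Cy3/Cy5-dUTP. Finally, whole-genome chip fluorescence is read relative to unexposed cells.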

Na2As [(1)]
The level of expressed mRNA in the presence of chemical substance/The level of expressed mRNA in the absence of chemical substance (yeast gene YAL015C): 1.2
The level of expressed mRNA in the presence of chemical substance/The level of expressed mRNA in the absence of chemical substance (yeast gene YAR007C): 0.7
The level of expressed mRNA in the presence of chemical substance/The level of expressed mRNA in the absence of chemical substance (yeast gene YBL019W): 0.9
The level of expressed mRNA in the presence of chemical substance/The level of expressed mRNA in the absence of chemical substance (yeast gene YBR073W): 0.7
The level of expressed mRNA in the presence of chemical substance/The level of expressed mRNA in the absence of chemical substance (yeast gene YBR272C): 0.8
The level of expressed mRNA in the presence of chemical substance/The level of expressed mRNA in the absence of chemical substance (yeast gene YCR014C): 0.8
The level of expressed mRNA in the presence of chemical substance/The level of expressed mRNA in the absence of chemical substance (yeast gene YDL017W): 0.8
The level of expressed mRNA in the presence of chemical substance/The level of expressed mRNA in the absence of chemical substance (yeast gene YDL059C): 2.6
The level of expressed mRNA in the presence of chemical substance/The level of expressed mRNA in the absence of chemical substance (yeast gene YDL200C): 1.4
The level of expressed mRNA in the presence of chemical substance/The level of expressed mRNA in the absence of chemical substance (yeast gene YDR054C): 1.3
The level of expressed mRNA in the presence of chemical substance/The level of expressed mRNA in the absence of chemical substance (yeast gene YDR369C): 1.1
The level of expressed mRNA in the presence of chemical substance/The level of expressed mRNA in the absence of chemical substance (yeast gene YEL019C): 1.1
The level of expressed mRNA in the presence of chemical substance/The level of expressed mRNA in the absence of chemical substance (yeast gene YEL037C): 0.9
The level of expressed mRNA in the presence of chemical substance/The level of expressed mRNA in the absence of chemical substance (yeast gene YER162C): 1.0
The level of expressed mRNA in the presence of chemical substance/The level of expressed mRNA in the absence of chemical substance (yeast gene YFL014W): 3.4
The level of expressed mRNA in the presence of chemical substance/The level of expressed mRNA in the absence of chemical substance (yeast gene YGL058W): 1.1
The level of expressed mRNA in the presence of chemical substance/The level of expressed mRNA in the absence of chemical substance (yeast gene YGL091C): 2.0
The level of expressed mRNA in the presence of chemical substance/The level of expressed mRNA in the absence of chemical substance (yeast gene YGL127C): 1.0
The level of expressed mRNA in the presence of chemical substance/The level of expressed mRNA in the absence of chemical substance (yeast gene YGL163C): 0.9
The level of expressed mRNA in the presence of chemical substance/The level of expressed mRNA in the absence of chemical substance (yeast gene YGL249W): 1.4
The level of expressed mRNA in the presence of chemical substance/The level of expressed mRNA in the absence of chemical substance (yeast gene YGR180C): 3.1
The level of expressed mRNA in the presence of chemical substance/The level of expressed mRNA in the absence of chemical substance (yeast gene YGR231C): 1.0
The level of expressed mRNA in the presence of chemical substance/The level of expressed mRNA in the absence of chemical substance (yeast gene YGR258C): 0.7
The level of expressed mRNA in the presence of chemical substance/The level of expressed mRNA in the absence of chemical substance (yeast gene YHR164C): 0.9
The level of expressed mRNA in the presence of chemical substance/The level of expressed mRNA in the absence of chemical substance (yeast gene YIL036W): 0.9
The level of expressed mRNA in the presence of chemical substance/The level of expressed mRNA in the absence of chemical substance (yeast gene YIL072W): 0.8
The level of expressed mRNA in the presence of chemical substance/The level of expressed mRNA in the absence of chemical substance (yeast gene YIL143C): 0.9
The level of expressed mRNA in the presence of chemical substance/The level of expressed mRNA in the absence of chemical substance (yeast gene YIL153W): 0.8
The level of expressed mRNA in the presence of chemical substance/The level of expressed mRNA in the absence of chemical substance (yeast gene YIR002C): 0.8
The level of expressed mRNA in the presence of chemical substance/The level of expressed mRNA in the absence of chemical substance (yeast gene YJL026W): 2.5
The level of expressed mRNA in the presence of chemical substance/The level of expressed mRNA in the absence of chemical substance (yeast gene YJR046W): 1.0
The level of expressed mRNA in the presence of chemical substance/The level of expressed mRNA in the absence of chemical substance (yeast gene YJR052W): 1.1
The level of expressed mRNA in the presence of chemical substance/The level of expressed mRNA in the absence of chemical substance (yeast gene YKL145W): 0.8
The level of expressed mRNA in the presence of chemical substance/The level of expressed mRNA in the absence of chemical substance (yeast gene YLR103C): 0.8
The level of expressed mRNA in the presence of chemical substance/The level of expressed mRNA in the absence of chemical substance (yeast gene YLR233C): 1.1
The level of expressed mRNA in the presence of chemical substance/The level of expressed mRNA in the absence of chemical substance (yeast gene YLR288C): 1.2
The level of expressed mRNA in the presence of chemical substance/The level of expressed mRNA in the absence of chemical substance (yeast gene YML032C): 0.8
The level of expressed mRNA in the presence of chemical substance/The level of expressed mRNA in the absence of chemical substance (yeast gene YML058W): 1.9
The level of expressed mRNA in the presence of chemical substance/The level of expressed mRNA in the absence of chemical substance (yeast gene YMR035W): 1.2
The level of expressed mRNA in the presence of chemical substance/The level of expressed mRNA in the absence of chemical substance (yeast gene YMR072W): 1.1
The level of expressed mRNA in the presence of chemical substance/The level of expressed mRNA in the absence of chemical substance (yeast gene YMR096W): 1.7
The level of expressed mRNA in the presence of chemical substance/The level of expressed mRNA in the absence of chemical substance (yeast gene YMR284W): 1.1
The level of expressed mRNA in the presence of chemical substance/The level of expressed mRNA in the absence of chemical substance (yeast gene YNL213C): 1.7
The level of expressed mRNA in the presence of chemical substance/The level of expressed mRNA in the absence of chemical substance (yeast gene YNL250W): 0.9
The level of expressed mRNA in the presence of chemical substance/The level of expressed mRNA in the absence of chemical substance (yeast gene YNL261W): 1.0
The level of expressed mRNA in the presence of chemical substance/The level of expressed mRNA in the absence of chemical substance (yeast gene YNL312W): 0.9
The level of expressed mRNA in the presence of chemical substance/The level of expressed mRNA in the absence of chemical substance (yeast gene YOL043C): 1.1
The level of expressed mRNA in the presence of chemical substance/The level of expressed mRNA in the absence of chemical substance (yeast gene YOR005C): 1.2
The level of expressed mRNA in the presence of chemical substance/The level of expressed mRNA in the absence of chemical substance (yeast gene YOR386W): 1.0
The level of expressed mRNA in the presence of chemical substance/The level of expressed mRNA in the absence of chemical substance (yeast gene YPL022W): 0.7
The level of expressed mRNA in the presence of chemical substance/The level of expressed mRNA in the absence of chemical substance (yeast gene YPL164C): 1.1
The level of expressed mRNA in the presence of chemical substance/The level of expressed mRNA in the absence of chemical substance (yeast gene YPL194W): 0.9
The level of expressed mRNA in the presence of chemical substance/The level of expressed mRNA in the absence of chemical substance (yeast gene YPR025C): 1.1

— patent US8192962B2, “Processes for detecting toxic substances” (Daikin Industries, Ltd., priority 2001, dated 2012)
